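Five compound concentrations were applied to cells in 96-well plates for 48 hours; endpoints were derived by simple linear interpolation of the resulting dose-response curve. TGI marks complete inhibition of growth.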
Assays:
Experiment in all cases: NCI-60 cell line screen, 48 h
SK-MEL-28 melanoma = tested on: SK-MEL-28 melanoma
RXF 393 renal = tested on: RXF 393 renal
ACHN renal = tested on: ACHN renal
PC-3 prostate = tested on: PC-3 prostate
MDA-N = tested on: MDA-N
SN12C renal = tested on: SN12C renal
UO-31 renal = tested on: UO-31 renal
CCRF-CEM leukemia = tested on: CCRF-CEM leukemia
A498 renal = tested on: A498 renal
A549 NSCLC = tested on: A549 NSCLC
NCI-H23 lung = tested on: NCI-H23 lung
SF-295 CNS = tested on: SF-295 CNS
SR leukemia = tested on: SR leukemia
NCI-H522 lung = tested on: NCI-H522 lung
HCT-116 colon = tested on: HCT-116 colon
HL-60(TB) leukemia = tested on: HL-60(TB) leukemia
SNB-75 CNS = tested on: SNB-75 CNS
OVCAR-4 ovarian = tested on: OVCAR-4 ovarian
OVCAR-5 ovarian = tested on: OVCAR-5 ovarian
SW-620 colon = tested on: SW-620 colon
NCI-H226 lung = tested on: NCI-H226 lung
M14 melanoma = tested on: M14 melanoma
UACC-257 melanoma = tested on: UACC-257 melanoma
HCT-15 colon = tested on: HCT-15 colon
DU-145 prostate = tested on: DU-145 prostate
KM12 colon = tested on: KM12 colon
NCI/ADR-RES ovarian = tested on: NCI/ADR-RES ovarian
CAKI-1 renal = tested on: CAKI-1 renal
T-47D breast = tested on: T-47D breast
UACC-62 melanoma = tested on: UACC-62 melanoma
SK-MEL-5 melanoma = tested on: SK-MEL-5 melanoma
HT29 colon = tested on: HT29 colon
OVCAR-3 ovarian = tested on: OVCAR-3 ovarian
K-562 leukemia = tested on: K-562 leukemia
TK-10 renal = tested on: TK-10 renal
NCI-H460 lung = tested on: NCI-H460 lung
BT-549 breast = tested on: BT-549 breast
SF-539 CNS = tested on: SF-539 CNS
SNB-19 CNS = tested on: SNB-19 CNS
MDA-MB-231 breast = tested on: MDA-MB-231 breast
COLO 205 colon = tested on: COLO 205 colon
OVCAR-8 ovarian = tested on: OVCAR-8 ovarian
IGROV1 ovarian = tested on: IGROV1 ovarian
MDA-MB-435 = tested on: MDA-MB-435
HOP-92 NSCLC = tested on: HOP-92 NSCLC
MCF7 breast = tested on: MCF7 breast
U251 CNS = tested on: U251 CNS
HCC-2998 colon = tested on: HCC-2998 colon
SF-268 CNS = tested on: SF-268 CNS
RPMI-8226 leukemia = tested on: RPMI-8226 leukemia
MALME-3M melanoma = tested on: MALME-3M melanoma
MOLT-4 leukemia = tested on: MOLT-4 leukemia
EKVX NSCLC = tested on: EKVX NSCLC
SK-OV-3 ovarian = tested on: SK-OV-3 ovarian
HOP-62 NSCLC = tested on: HOP-62 NSCLC
LOX IMVI melanoma = tested on: LOX IMVI melanoma
SK-MEL-2 melanoma = tested on: SK-MEL-2 melanoma
HS 578T breast = tested on: HS 578T breast
786-0 renal = tested on: 786-0 renal

Measured: TGI

COC(=O)C(Cc1cn(C(C)=O)c2ccccc12)P(=O)(OC)OC (stereo not drawn)
not listed: MALME-3M melanoma | MOLT-4 leukemia | EKVX NSCLC | SK-OV-3 ovarian | HOP-62 NSCLC | LOX IMVI melanoma | SK-MEL-2 melanoma | HS 578T breast | 786-0 renal
> 100 µM: all other assays above

C/C1=C/C(C)CC(C)OC(=O)C(C)NC(=O)C(Cc2ccc(O)c(I)c2)N(C)C(=O)CNC(=O)C(C)C1 (stereo not drawn)
1.35 µM: SF-268 CNS
5.97 µM: UACC-257 melanoma
4.94 µM: SF-539 CNS
0.0236 µM: IGROV1 ovarian
< 0.01 µM: RXF 393 renal | CCRF-CEM leukemia | HL-60(TB) leukemia | CAKI-1 renal | OVCAR-3 ovarian | HOP-62 NSCLC | LOX IMVI melanoma
> 52.7 µM: MOLT-4 leukemia
0.0654 µM: HOP-92 NSCLC
0.757 µM: RPMI-8226 leukemia
0.035 µM: UO-31 renal
1.73 µM: SF-295 CNS
0.322 µM: BT-549 breast
> 59.7 µM: NCI-H460 lung
0.723 µM: HS 578T breast
16.6 µM: MDA-MB-435
< 0.0134 µM: A498 renal
11.2 µM: HCT-15 colon
6.22 µM: MALME-3M melanoma
2.16 µM: SK-OV-3 ovarian
< 0.0141 µM: SNB-75 CNS
10.2 µM: SK-MEL-2 melanoma
13.2 µM: SK-MEL-5 melanoma | HCC-2998 colon
> 20.9 µM: UACC-62 melanoma
> 21.9 µM: EKVX NSCLC
1.99 µM: MDA-MB-231 breast
> 77.3 µM: NCI/ADR-RES ovarian
0.0707 µM: U251 CNS
not listed: SK-MEL-28 melanoma | ACHN renal | PC-3 prostate | SR leukemia | NCI-H522 lung | OVCAR-4 ovarian | NCI-H226 lung | K-562 leukemia | TK-10 renal | 786-0 renal
> 100 µM: all other assays above

O=c1c(C=Nc2ccccc2Cl)c(O)n(-c2ccccc2)c(=O)n1-c1ccccc1
not listed: SK-MEL-28 melanoma | SR leukemia | HL-60(TB) leukemia | SNB-75 CNS | DU-145 prostate
> 100 µM: all other assays above

COc1cccc(OC/C(N=Cc2cccnc2)=N/NC(=O)c2ccncc2)c1
not listed: SN12C renal | UO-31 renal | SR leukemia | SK-MEL-5 melanoma
> 100 µM: all other assays above

From PubChem BioAssay (NCI)
